ChEMBL document CHEMBL4418487, “Max binders as myc modulators and uses thereof” (2017)
pIC50: −log10 of the molar value. Active and inactive are the calls of the source. No cut-off for these calls is given here.

Legend:
[1] = Cytotoxicity against human P493-6 cells with where Myc is in OFF- condition assessed as reduction in cell viability incubated for 3 days by CellTiter-Glo assay; assay type: cell-based
[2] = Cytotoxicity against human P493-6 cells with where Myc is in ON- condition assessed as reduction in cell viability incubated for 3 days by CellTiter-Glo assay; assay type: functional, cell-based
[3] = Retention time of the compound by LC/MS analysis; assay type: physicochemical
[4] = target: Protein max (Homo sapiens) (UniProt P61244); test: Binding affinity to Max in human P493-6 cells assessed as decrease in Myc protein levels at 10 uM in presence of 10 uM proteasome inhibitor MG132; assay type: cell-based
Protein max (Homo sapiens), sequence (P61244 whole entry): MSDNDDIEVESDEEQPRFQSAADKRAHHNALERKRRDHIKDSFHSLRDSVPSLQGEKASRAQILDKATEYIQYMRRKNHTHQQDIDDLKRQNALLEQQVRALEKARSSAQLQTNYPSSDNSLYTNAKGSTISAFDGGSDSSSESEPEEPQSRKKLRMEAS

[5] = Drug level in plasma (unknown origin) at 0.2 to 10 uM by serial dilution-lowest detection limit test; assay type: ADME, cell-free
[6] = target: Protein max (Homo sapiens) (UniProt P61244); test: Induction of recombinant human Max homodimer stabilization at 10 uM pre-incubated for 1 hr with protein and measured after 18 hrs
[7] = Renal toxicity in healthy mouse assessed as induction of kidney damage at 0.364 mg/kg, po dosed daily using cyclodextrin vehicle for 7 days by H and E staining histological analysis; assay type: organism-based; conditions: in vivo, 168 h
[8] = target: Protein max (Homo sapiens) (UniProt P61244); test: Binding affinity to Max in human P493-6 cells assessed as effect on Max interactome by measuring perturbation in Atg16l1 level at […] incubated for 30 mins by immunoprecipitation based assay; assay type: cell-based
[9] = Drug level in mouse plasma at 20 uM, po by LC/MS analysis; assay type: ADME, organism-based; conditions: in vivo
[10] = Toxicity in healthy mouse assessed as effect on liver at 0.731 mg/kg, po dosed daily using cyclodextrin vehicle for 7 days by H and E staining histological analysis; assay type: organism-based; conditions: in vivo, 168 h
[11] = target: Protein max (Homo sapiens) (UniProt P61244); test: Binding affinity to Max in human P493-6 cells at […] incubated for 30 mins by immunoprecipitation based assay; assay type: cell-based
[12] = target: Protein max (Homo sapiens) (UniProt P61244); test: Binding affinity to Max in human P493-6 cells assessed as decrease in Myc transcript levels by qPCR analysis; assay type: cell-based
[13] = Toxicity in healthy mouse assessed as effect on behavior at 0.731 mg/kg, po dosed daily using cyclodextrin vehicle for 7 days measured on each day; assay type: organism-based; conditions: in vivo, 168 h
Homo sapiens [14] = test: Antitumor activity against Luc-labeled and MYC-driven human T-ALL 4188 cells xenografted in immune-compromised NSG mouse assessed as reduction in tumor volume using tumor cells pre-treated with 20 uM compound for 24 hrs; assay type: functional
[15] = Toxicity in healthy mouse assessed as effect on body weight at 0.364 mg/kg, po dosed daily using cyclodextrin vehicle for 7 days measured on each day; assay type: organism-based; conditions: in vivo, 168 h
[16] = target: Myc proto-oncogene protein (Homo sapiens) (UniProt P01106); test: Binding affinity to c-Myc in human P493-6 cells at […] incubated for 30 mins by immunoprecipitation based assay; assay type: cell-based
Myc proto-oncogene protein (Homo sapiens), sequence (P01106 whole entry): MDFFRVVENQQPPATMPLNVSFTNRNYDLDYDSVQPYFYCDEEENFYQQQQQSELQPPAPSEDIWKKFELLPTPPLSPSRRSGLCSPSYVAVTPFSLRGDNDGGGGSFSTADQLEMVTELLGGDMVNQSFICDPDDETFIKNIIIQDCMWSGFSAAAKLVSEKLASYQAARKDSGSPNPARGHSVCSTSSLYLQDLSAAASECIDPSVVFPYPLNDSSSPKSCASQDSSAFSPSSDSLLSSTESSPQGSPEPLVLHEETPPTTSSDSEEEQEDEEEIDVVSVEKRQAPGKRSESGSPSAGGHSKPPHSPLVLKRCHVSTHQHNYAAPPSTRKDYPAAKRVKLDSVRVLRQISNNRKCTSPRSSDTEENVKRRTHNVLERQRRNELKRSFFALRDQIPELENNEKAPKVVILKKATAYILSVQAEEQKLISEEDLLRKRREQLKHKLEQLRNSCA

[17] = target: Protein max (Homo sapiens) (UniProt P61244); test: Induction of Max homodimer stabilization in human P493-6 cells assessed as increase in Max homodimer binding to DNA by electrophoretic mobility shift assay; assay type: cell-based
c-Myc/Max (Homo sapiens) = c-Myc/Max (Homo sapiens) (UniProt P01106+P61244); test: Inhibition of c-Myc/Max heterodimer interaction in human P493-6 cells by electrophoretic mobility shift assay; assay type: cell-based
[18] = target: Protein max (Homo sapiens) (UniProt P61244); test: Binding affinity to Max in human P493-6 cells assessed as effect on Max interactome by measuring perturbation in Nacc2 level at […] incubated for 30 mins by immunoprecipitation based assay; assay type: cell-based
[19] = target: Protein max (Homo sapiens) (UniProt P61244); test: Binding affinity to Max in human P493-6 cells assessed as decrease in Myc protein levels; assay type: cell-based
[20] = target: Protein max (Homo sapiens) (UniProt P61244); test: Binding affinity to Max in human P493-6 cells assessed as effect on Max interactome by measuring perturbation in Mxd4 level at […] incubated for 30 mins by immunoprecipitation based assay; assay type: cell-based
[21] = Toxicity in healthy mouse assessed as effect on behavior at 0.364 mg/kg, po dosed daily using cyclodextrin vehicle for 7 days measured on each day; assay type: organism-based; conditions: in vivo, 168 h
[22] = target: Protein max (Homo sapiens) (UniProt P61244); test: Binding affinity to Max in human P493-6 cells assessed as effect on Max interactome by measuring perturbation in Myc level at […] incubated for 30 mins by immunoprecipitation based assay; assay type: cell-based
[23] = Toxicity in healthy mouse assessed as effect on liver at 0.364 mg/kg, po dosed daily using cyclodextrin vehicle for 7 days by H and E staining histological analysis; assay type: organism-based; conditions: in vivo, 168 h
[24] = target: Protein max (Homo sapiens) (UniProt P61244); test: Binding affinity to Max in human P493-6 cells assessed as induction of perturbation in transcriptional programs after 45 mins; assay type: cell-based
[25] = Drug level in mouse plasma at 20 uM, iv by LC/MS analysis; assay type: ADME, organism-based; conditions: in vivo
Homo sapiens [26] = test: Antitumor activity against Luc-labeled and MYC-driven human T-ALL 4188 cells xenografted in immune-compromised NSG mouse assessed as reduction in tumor volume at 10 mg/ml dosed in corn oil every other day during day 2 to 16 after tumor implantation; assay type: functional, organism-based
[27] = Drug level in mouse plasma at 100 to 200 uM, po dosed using cyclodextrin vehicle by LC/MS analysis; assay type: ADME, organism-based; conditions: in vivo
Homo sapiens [28] = test: Antitumor activity against Luc-labeled and MYC-driven human T-ALL 4188 cells xenografted in immune-compromised NSG mouse assessed as reduction in tumor volume at 20 uM, iv measured during 2 to 12 days after tumor implantation; assay type: functional, organism-based
[29] = Toxicity in healthy mouse assessed as effect on body weight at 0.731 mg/kg, po dosed daily using cyclodextrin vehicle for 7 days measured on each day; assay type: organism-based; conditions: in vivo, 168 h
[30] = Hepatic toxicity in healthy mouse assessed as induction of liver damage at 0.731 mg/kg, po dosed daily using cyclodextrin vehicle for 7 days by H and E staining histological analysis; assay type: organism-based; conditions: in vivo, 168 h
[31] = target: Protein max (Homo sapiens) (UniProt P61244); test: Binding affinity to Max in human P493-6 cells assessed as effect on Max interactome by measuring perturbation in Yaf2 level at […] incubated for 30 mins by immunoprecipitation based assay; assay type: cell-based
[32] = target: Protein max (Homo sapiens) (UniProt P61244); test: Binding affinity to Max in human P493-6 cells assessed as effect on Max interactome by measuring perturbation in Rcor1 level at […] incubated for 30 mins by immunoprecipitation based assay; assay type: cell-based
[33] = Renal toxicity in healthy mouse assessed as induction of kidney damage at 0.731 mg/kg, po dosed daily using cyclodextrin vehicle for 7 days by H and E staining histological analysis; assay type: organism-based; conditions: in vivo, 168 h
[34] = target: Protein max (Homo sapiens) (UniProt P61244); test: Binding affinity to Max in human P493-6 cells at 5 to 10 uM using AlexaFluor-tagged compound by Western blotting analysis based target engagement assay; assay type: cell-based
[35] = target: Protein max (Homo sapiens) (UniProt P61244); test: Binding affinity to Max in human P493-6 cells using Biotin with streptavidin enrichment by Western blotting analysis based target engagement assay; assay type: cell-based
[36] = target: Protein max (Homo sapiens) (UniProt P61244); test: Binding affinity to Max in human P493-6 cells at 5 to 10 uM using AlexaFluor-tagged compound in presence of 20 uM soluble KI-MS2-008 by Western blotting analysis based target engagement assay; assay type: cell-based
Astrocyte = test: Cytotoxicity against normal human astrocytes assessed as reduction in cell viability incubated for 4 days by CellTiter-Glo assay; assay type: cell-based; conditions: 96 h
[37] = target: Protein max (Homo sapiens) (UniProt P61244); test: Binding affinity to Max in human P493-6 cells using 2 mg protein by immunoblotting based pull down assay; assay type: cell-based
[38] = target: Myc proto-oncogene protein (Homo sapiens) (UniProt P01106); test: Binding affinity to MYC in human P493-6 cells using 2 mg protein by immunoblotting based pull down assay; assay type: cell-based
[39] = target: Protein max (Homo sapiens) (UniProt P61244); test: Binding affinity to Max in human P493-6 cells using Bio-MS2 by Western blotting analysis based pull down assay; assay type: cell-based
Homo sapiens [40] = species on record: Homo sapiens; test: Cytotoxicity against human GBM4 cells assessed as reduction in cell viability incubated for 4 days by CellTiter-Glo assay; assay type: functional, cell-based
NCI-H1963 = test: Cytotoxicity against human NCI-H1963 cells assessed as reduction in cell viability incubated for 3 days by CellTiter-Glo assay; assay type: functional, cell-based
CA46 = test: Cytotoxicity against human CA46 cells assessed as reduction in cell viability incubated for 3 days by CellTiter-Glo assay; assay type: functional, cell-based
ST486 = test: Cytotoxicity against human ST486 cells assessed as reduction in cell viability incubated for 3 days by CellTiter-Glo assay; assay type: functional, cell-based

O=C1NCc2ccccc2[C@@H]2OC(c3ccccc3)=N[C@]12Cc1ccccc1
pIC50 ([1]; Homo sapiens, P493-6, 72 h): < 4.30

O=C1N(CCS(=O)(=O)c2ccccc2)Cc2ccccc2[C@@H]2OC(c3ccc(OCCCO)cc3)=N[C@]12Cc1ccccc1
pIC50 [1]: < 4.30

O=C(c1ccccc1)N1Cc2ccccc2[C@@H]2OC(c3ccccc3)=N[C@]2(Cc2ccccc2)C1=O
pIC50 ([1]; Homo sapiens, P493-6, 72 h): < 4.30
pIC50 ([2]; Homo sapiens, P493-6, 72 h): < 4.30

O=C(O)CN1Cc2ccccc2[C@@H]2OC(c3ccccc3)=N[C@]2(Cc2ccccc2)C1=O
pIC50 ([1]; Homo sapiens, P493-6, 72 h): < 4.30

O=C1N(CCS(=O)(=O)c2ccccc2)Cc2ccccc2[C@@H]2OC(c3ccccc3)=N[C@]12Cc1ccccc1
Retention_time [3]: 9 min
Activity [4]: inactive
Drug uptake [5]: Active
Activity [6]: Active
Activity [7]: Non-Toxic
Activity [8]: Active
Drug uptake [9]: Not Active
Activity [10]: Non-Toxic
Activity [11]: Active
Activity [12]: Active
Activity [13]: Non-Toxic
Activity (Homo sapiens [14]): Active
Activity [15]: Non-Toxic
Activity [16]: Active
Activity [17]: Dose-dependent effect
inhibition (c-Myc/Max (Homo sapiens)): inactive
Activity [18]: Active
Activity [19]: Dose-dependent effect
Activity [20]: Active
pIC50 ([1]; Homo sapiens, P493-6, 72 h): < 4.30
Activity [21]: Non-Toxic
Activity [22]: Active
Activity [23]: Non-Toxic
Activity [24]: Active
Drug uptake [25]: Active
Activity (Homo sapiens [26]): Active
Drug uptake [27]: Active
Activity (Homo sapiens [28]): Active
Activity [29]: Non-Toxic
Activity [30]: Non-Toxic
Activity [31]: Active
Activity [32]: Active
Activity [33]: Non-Toxic

CCN(CC(=O)NCCNC(=O)CN1Cc2ccccc2[C@@H]2OC(c3ccccc3)=N[C@]2(Cc2ccccc2)C1=O)C(=O)CCC1(C)N=N1
Activity [34]: Active
Activity [35]: Active
Activity [36]: inactive

CC(=O)N1Cc2ccccc2[C@@H]2OC(c3ccccc3)=N[C@]2(Cc2ccccc2)C1=O
pIC50 ([1]; Homo sapiens, P493-6, 72 h): < 4.30
pIC50 ([2]; Homo sapiens, P493-6, 72 h): 4.71

O=C1N(CCS(=O)(=O)c2ccccc2)Cc2cc(Cl)ccc2[C@@H]2OC(c3ccccc3)=N[C@]12Cc1ccccc1
pIC50 ([1]; Homo sapiens, P493-6, 72 h): < 4.30
pIC50 ([2]; Homo sapiens, P493-6, 72 h): 4.59

O=C1N(CCS(=O)(=O)c2ccccc2)Cc2ccccc2[C@@H]2OC(c3ccc(OCCCO)cc3)=N[C@]12Cc1ccccc1 (racemic) [listing 1 of 2 here]
pIC50 ([1]; Homo sapiens, P493-6, 72 h): 4.24 to 4.30
pIC50 [2]: 4.84 to 5.17
Activity (Astrocyte): Non-Toxic

C=CCN1Cc2ccccc2[C@@H]2OC(c3ccccc3)=N[C@]2(Cc2ccccc2)C1=O
pIC50 ([1]; Homo sapiens, P493-6, 72 h): < 4.30

NCCOCCOCCNC(=O)CN1Cc2ccccc2[C@@H]2OC(c3ccccc3)=N[C@]2(Cc2ccccc2)C1=O
Activity [37]: Active
Activity [38]: Active

CCOC(=O)CN1Cc2ccccc2[C@@H]2OC(c3ccccc3)=N[C@]2(Cc2ccccc2)C1=O
pIC50 ([1]; Homo sapiens, P493-6, 72 h): < 4.30

O=C1N(CCS(=O)(=O)c2ccccc2)Cc2ccccc2[C@@H]2OC(c3ccc(OCCCO)cc3)=N[C@]12Cc1ccccc1 (racemic) [listing 2 of 2 here]
Activity [39]: Active
Activity (Homo sapiens [40]): Active
Activity (NCI-H1963): Active
Activity (CA46): Active
Activity (ST486): Active
